Reference: paper PMC3222648, “Inotropic Action of the Puberty Hormone Kisspeptin in Rat, Mouse and Human: Cardiovascular Distribution and Characteristics of the Kisspeptin Receptor” (PLoS ONE, 2011)
Entries after “also recorded” stand apart in the source; their conditions may differ. Where no end group is shown, it is not given here.

Columns and labels:
kisspeptin receptor [1] = target: T1, kisspeptin receptor (Mus musculus, UniProt Q91V45); assay: Inotropic activity in mouse paced atria, wild type (Kiss1r ^+/+); conditions: % of CaCl2 maximum (8.95 mM final), mean ± SEM, n = 6, read-out: Emax (maximum positive inotropic response)
T1 construct: Paired rat or mouse atria; from tissue; host or cells: mouse paired atria, wild type
T1 sequence (Q91V45 whole entry): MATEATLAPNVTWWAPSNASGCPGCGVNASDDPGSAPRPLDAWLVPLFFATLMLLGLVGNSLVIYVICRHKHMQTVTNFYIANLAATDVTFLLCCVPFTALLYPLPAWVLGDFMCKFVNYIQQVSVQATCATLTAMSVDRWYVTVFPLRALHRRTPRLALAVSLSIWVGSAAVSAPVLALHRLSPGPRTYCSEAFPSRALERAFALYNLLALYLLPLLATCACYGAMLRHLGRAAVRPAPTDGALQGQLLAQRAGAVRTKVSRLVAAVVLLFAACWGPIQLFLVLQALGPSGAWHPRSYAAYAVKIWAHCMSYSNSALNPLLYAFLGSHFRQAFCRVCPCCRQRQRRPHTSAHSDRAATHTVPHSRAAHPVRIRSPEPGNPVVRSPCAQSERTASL
Description: (§1) Paired rat or mouse atria, or 4 mm strips of human atrial appendage, were mounted in 10 ml organ baths containing oxygenated Krebs solution at 37°C as described previously. Tension on the tissue was adjusted to 50% of that at which the maximum force was generated and then paced at 1 Hz, square-wave pulse, 5 ms duration, with the voltage just above threshold (<4.0 V). […] Experiments were terminated by the addition of 6.7 mM CaCl2 (final bath concentration 8.95 mM) and responses expressed as a % of this CaCl2 maximum.
(§2) Radioligand binding study data were analyzed using the iterative, non-linear curve fitting programs EBDA and LIGAND in the KELL package (Biosoft, Cambridge, UK). Pooled KD, BMAX and Hill slopes (nH) were expressed as mean±SEM and normalized to protein concentrations. In vitro pharmacology data agonist responses were expressed as %CaCl2 response in the paced atrial tissues and %KCl in the vasoconstrictor studies and data were fitted to a four parameter logistic equation using an iterative curve-fitting program (FigSys, Biosoft, Cambridge, UK) to obtain values for potency (pD2: the negative logarithm to the base 10 of the EC50) and maximum response (EMAX: %CaCl2 or %KCl, respectively) expressed as mean±SEM. Where appropriate, values were compared by one-way analysis of variance (ANOVA). […]

[2] = test system: endothelium-denuded rat aortic rings; assay: Vasoconstrictor activity in endothelium-denuded rat aorta; conditions: mean ± SEM, ET-1 n = 7, KP-10 tissues from 4 animals, KP-54 tissues from 3 animals
Description: Rat thoracic aorta was cleaned of connective tissue and cut into 4 mm rings and the endothelial layer removed by gentle rubbing. Tissues were set to a basal tension at which the maximum response to 100 mM KCl was generated and subsequent responses to kisspeptins were expressed as % of this KCl response. Aortic rings were then contracted with 10 µM phenylephrine and 1 µM ACh was added; a reduction in the phenylephrine response of <10% was taken as evidence of removal of endothelium. […] Experiments were terminated by the addition of 100 mM KCl and agonist responses were expressed as a % of this KCl maximum.
Radioligand binding study data were analyzed using the iterative, non-linear curve fitting programs EBDA and LIGAND in the KELL package (Biosoft, Cambridge, UK). Pooled KD, BMAX and Hill slopes (nH) were expressed as mean±SEM and normalized to protein concentrations. In vitro pharmacology data agonist responses were expressed as %CaCl2 response in the paced atrial tissues and %KCl in the vasoconstrictor studies and data were fitted to a four parameter logistic equation using an iterative curve-fitting program (FigSys, Biosoft, Cambridge, UK) to obtain values for potency (pD2: the negative logarithm to the base 10 of the EC50) and maximum response (EMAX: %CaCl2 or %KCl, respectively) expressed as mean±SEM. Where appropriate, values were compared by one-way analysis of variance (ANOVA). In all cases P<0.05 was considered statistically significant and n-values were the number of animals or patients from which data were obtained.

kisspeptin receptor [3] = target: kisspeptin receptor (Rattus norvegicus, UniProt Q924U1); assay: Inotropic activity in rat paced paired atria; design: Paired rat or mouse atria; from tissue; host or cells: rat paired atria
Chain of kisspeptin receptor (Rattus norvegicus, UniProt Q924U1) (Q924U1 whole entry): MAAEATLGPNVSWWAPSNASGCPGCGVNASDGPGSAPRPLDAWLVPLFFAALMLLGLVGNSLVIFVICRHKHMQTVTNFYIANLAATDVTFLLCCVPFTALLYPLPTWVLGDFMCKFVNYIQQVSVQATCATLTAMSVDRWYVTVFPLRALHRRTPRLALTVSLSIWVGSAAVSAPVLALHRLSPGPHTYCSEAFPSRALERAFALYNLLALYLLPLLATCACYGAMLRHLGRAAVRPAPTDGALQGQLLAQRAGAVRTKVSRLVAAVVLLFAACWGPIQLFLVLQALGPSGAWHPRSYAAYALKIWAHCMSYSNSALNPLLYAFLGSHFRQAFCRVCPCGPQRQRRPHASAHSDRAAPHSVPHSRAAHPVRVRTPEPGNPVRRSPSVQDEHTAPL
Description: (§3) Paired rat or mouse atria, or 4 mm strips of human atrial appendage, were mounted in 10 ml organ baths containing oxygenated Krebs solution at 37°C as described previously. […] Experiments were terminated by the addition of 6.7 mM CaCl2 (final bath concentration 8.95 mM) and responses expressed as a % of this CaCl2 maximum. Radioligand binding study data were analyzed using the iterative, non-linear curve fitting programs EBDA and LIGAND in the KELL package (Biosoft, Cambridge, UK). Pooled KD, BMAX and Hill slopes (nH) were expressed as mean±SEM and normalized to protein concentrations. […] Where appropriate, values were compared by one-way analysis of variance (ANOVA). In all cases P<0.05 was considered statistically significant and n-values were the number of animals or patients from which data were obtained.

kisspeptin receptor [4] = target: T2, kisspeptin receptor (Homo sapiens, UniProt Q969F8); assay: Inotropic activity in human paced atrial strips; conditions: human atrial strips
T2 construct: cryostat-cut sections of human (15 µm) or rat (10 µm) heart; from tissue; host or cells: human right atria (control, dilated cardiomyopathy, ischaemic heart disease), cryostat sections
T2 sequence (Q969F8 whole entry): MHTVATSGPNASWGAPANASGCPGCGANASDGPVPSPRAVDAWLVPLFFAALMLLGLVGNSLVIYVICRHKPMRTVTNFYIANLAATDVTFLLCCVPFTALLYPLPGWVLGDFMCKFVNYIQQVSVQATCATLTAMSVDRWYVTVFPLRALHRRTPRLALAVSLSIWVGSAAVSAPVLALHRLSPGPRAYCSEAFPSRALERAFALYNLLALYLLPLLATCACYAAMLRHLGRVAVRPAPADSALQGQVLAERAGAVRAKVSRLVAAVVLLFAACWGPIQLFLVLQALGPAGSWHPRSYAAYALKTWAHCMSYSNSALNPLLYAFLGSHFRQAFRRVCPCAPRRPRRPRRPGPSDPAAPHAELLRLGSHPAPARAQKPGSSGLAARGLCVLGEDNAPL
Description: as §3

[5] = ref [47]; cited from earlier work
Kiss1r ^−/− atria = assay: Inotropic activity in atria of mice with targeted disruption of Kiss1r; design: species or system mouse
Description: as §1, §2

[6] = test system: human coronary artery and umbilical vein; conditions: ref [31]; cited from earlier work
Source text: We have recently identified a further role for kisspeptin as a vasoactive peptide. We detected kisspeptin and kisspeptin receptor expression in human vasculature, and intriguingly found this to be restricted to the aorta, coronary artery and umbilical vein, vessels with the same developmental origin. […] However, to our knowledge, a cardiac role of kisspeptin has not yet been investigated in man, nor any cardiovascular effects ...

Row | Molecule | Emax (kisspeptin receptor [1]) | EMAX (maximum vasoconstrictor response) ([2]; % of 100 mM KCl maximum, endothelium-denuded rat aorta) | pD2 (vasoconstriction) ([2]; endothelium-denuded rat thoracic aortic rings, KP-10, KP-54 10^−12–3×10^−9 M, ET-1 10^−10–3×10^−7 M) | lusitropic effects (kisspeptin receptor [3]; rat atria, half time to peak force and half time to relaxation) | Emax (kisspeptin receptor [3]; read-out: EMAX (maximum positive inotropic response)) | Emax (kisspeptin receptor [4]; % of CaCl2 maximum (8.95 mM final), mean ± SEM, n = 5, read-out: EMAX (maximum positive inotropic response)) | lusitropic effects (kisspeptin receptor [4]; half time to peak force and half time to relaxation) | anti-angiogenic activity [5] | inotropic response in Kiss1r ^−/− atria (Kiss1r ^−/− atria) | vasoconstrictor activity [6]
1 | CC[C@H](C)[C@H](NC(=O)[C@H](CCC(N)=O)NC(=O)[C@H](CCCNC(=N)N)NC(=O)[C@H](CO)NC(=O)[C@H](Cc1c[nH]cn1)NC(=O)[C@@H]1CCCN1C(=O)[C@H](C)NC(=O)[C@H](CO)NC(=O)[C@H](CC(C)C)NC(=O)CNC(=O)[C@@H]1CCCN1C(=O)[C@H](CCC(N)=O)NC(=O)[C@H](CCC(N)=O)NC(=O)[C@H](CCCNC(=N)N)NC(=O)[C@H](CO)NC(=O)CNC(=O)[C@H](CO)NC(=O)[C@H](CO)NC(=O)[C@H](CCC(=O)O)NC(=O)[C@@H]1CCCN1C(=O)[C@@H]1CCCN1C(=O)[C@@H]1CCCN1C(=O)[C@H](CO)NC(=O)[C@H](CC(C)C)NC(=O)[C@H](CO)NC(=O)[C@@H](NC(=O)CN)[C@@H](C)O)C(=O)N1CCC[C@H]1C(=O)N[C@@H](C)C(=O)N1CCC[C@H]1C(=O)N[C@@H](CCC(N)=O)C(=O)NCC(=O)N[C@@H](C)C(=O)N[C@H](C(=O)N[C@@H](CC(C)C)C(=O)N[C@H](C(=O)N[C@@H](CCC(N)=O)C(=O)N[C@@H](CCCNC(=N)N)C(=O)N[C@@H](CCC(=O)O)C(=O)N[C@@H](CCCCN)C(=O)N[C@@H](CC(=O)O)C(=O)N[C@@H](CC(C)C)C(=O)N1CCC[C@H]1C(=O)N[C@@H](CC(N)=O)C(=O)N[C@@H](Cc1ccc(O)cc1)C(=O)N[C@@H](CC(N)=O)C(=O)N[C@@H](Cc1c[nH]c2ccccc12)C(=O)N[C@@H](CC(N)=O)C(=O)N[C@@H](CO)C(=O)N[C@@H](Cc1ccccc1)C(=O)NCC(=O)N[C@@H](CC(C)C)C(=O)N[C@@H](CCCNC(=N)N)C(=O)N[C@@H](Cc1ccccc1)C(N)=O)C(C)C)C(C)C [KP-54] | 26 ± 4% | 97±1 % KCl | 10.47±0.26 | Lusitropic effects were not observed | 14 ± 2% | 82 ± 13% | Lusitropic effects were not observed | anti-angiogenic | lack of effect; also recorded: no inotropic response | –
2 | kisspeptin: Kisspeptin, or KP-54; also used generically for the endogenous peptides and kisspeptin-like immunoreactivity (GTSLSPPPESSGSPQQPGLSAPHSRQIPAPQGAVLVQREKDLPNYNWNSFGLRF; ends and bridges not checked; UniProt Q15726 68-121, looked up) | – | – | – | – | – | – | – | – | No response | potent vasoconstrictor
